Consider 1 molecule from US20230256094A1, “CANCER RADIOSENSITIZATION BY IN SITU FORMATION OF GOLD NANOPARTICLES AND/OR GOLD NANOCLUSTERS” (BOARD OF REGENTS, THE UNIVERSITY OF TEXAS SYSTEM, priority 2020, published 2023).

For data set [1], the system named is PANC1 cells. The experiment in a line: Optimization of conditions for intracellular synthesis of fluorescent GNCs. The class given is cell-based, human. The protocol: 2.3. Optimization of conditions for intracellular synthesis of GNCs. We determined optimal conditions for intracellular synthesis of fluorescent GNCs by PANC1 cells through variations in (1) how long cells condition media before addition of Au^3+ ions (FIG. 11), (2) the concentration of FBS within the media (FIG. 10), (3) concentration of added Au^3+ ions (FIGS. 13), and (4) incubation time (FIG. 12). We used the following standard conditions: 24 hr cell conditioning time, 10% FBS, 1.00 mM Au^3+, and 24 hr Au^3+ treatment duration. […] We observed significant formation of GNCs at Au^3+ concentrations between 0.20-0.75 mM, with fluorescence reduced at concentrations greater than 1.00 mM, possibly, due to formation of larger non-fluorescent gold nanoparticles (GNPs). We observed fluorescence as early as 30 minutes after addition of gold atoms with a significant increase up to 4 hours.

In data set [2] the test system is pancreatic cancer cells (MIAPACA2). Briefly: Confocal fluorescence imaging of in situ GNC synthesis. The note with it: MIAPACA2; 1 mM, 24 hours; 561 nm excitation, 610 nm emission. It counts as cell-based, human. The method, then: FIG. 4 presents fluorescence confocal images of non-cancerous (HPDE) and cancerous (MIAPaCa2) pancreatic cells treated with either 1 mM of Au^3+ gold ions or premade albumin-GNCs at 1 mM Au^0 for 24 hours. (From left to right) Cells: untreated; treated with albumin-GNCs; treated with Au^3+ gold ions. […] The strong red fluorescence in cancer cells indicated intracellular synthesis of GNCs from gold ions. Scale bars are 25 μm.
We compared in situ synthesis of GNCs by pancreatic cancer cells (MIAPACA2) and pancreatic noncancerous cells (HPDE) (FIG. 4). Confocal fluorescence images were obtained using a Leica TCS SP8 confocal microscope with 561 nm excitation and 610 nm emission optimized for detection of GNCs.

The test system of another data set is NIH3T3 cells. Briefly: Confocal fluorescence imaging of intracellular GNC formation. As to conditions: 1 mM in cell culture media, 24 hours; 561 nm excitation, 610 nm emission. It counts as cell-based, mouse. The method, then: FIG. 3A presents fluorescence images of control NIH3T3 cells (left) and cells treated with Au^3+ (right). Both control and treated cells generated fluorescence with nuclear staining by Hoechst 33342. Fluorescent signal in the treated cells was associated with intracellular formation of gold nanoclusters (GNCs). Scale bars 20 μm.
Our initial evaluation of radiosensitization via intracellular GNP formation was performed with 3T3 mouse fibroblast cells. […] Radiosensitization with intracellular GNC formation (i.e., delivery of Au^3+) was compared with pre-fabricated albumin-coated GNCs (Albumin-GNC) prepared according to work by Xie^46 and control cells without treatment via MTS assay (FIG. 3B).

Data set [3] relates to cancerous (Mia-PaCa-2 and PANC1) vs normal (HPDE) pancreatic cells. The experiment in a line: Fluorescent confocal microscopy of GNC biosynthesis, cancerous vs normal cells. It counts as cell-based. The note with it: 1.00 mM, 24 hr (FIG. 8B). The text has this: (§1) Hoechst nuclear stain is the only imaging source in the untreated column and the primary imaging source in the albumin-GNC column and the non-cancer Au^3+ panel. Cells are live during imaging. Scale bars are 10 μm.
(§2) FIG. 8B quantifies GNC channel pixel intensity of the samples in each of the rows of FIG. 8A.
(§3) 2.2. Comparisons of efficiency of the GNC in situ synthesis by cancer and normal cells. We compared GNC biosynthesis between normal (HPDE) and cancerous (Mia-PaCa-2 and PANC1) pancreatic cells using fluorescent confocal microscopy (FIG. 8A). In addition, we compared the efficiency of the intracellular synthesis with extracellular uptake of prefabricated albumin coated GNCs (FIG. 8A). […] Further, there was 12.20- and 7.69-times greater fluorescence due to in situ synthesis relative to cellular uptake of prefabricated GNCs in PANC1 and Mia-PaCa-2 cells, respectively (FIG. 8B).

Data set [4] deals with PANC1 cells. Briefly: MTS viability assay. It counts as cell-based. The protocol: 2.4. Characterize cytotoxicity of gold atom treatment. An MTS viability assay was used with 0-2.0 mM Au^3+ dose range. […] MTS assay was not usable at concentrations >0.75 mM Au^3+ due to intracellular formation of larger GNPs and their absorbance interfering with the MTS results. Therefore, at higher Au^3+ we switched to AO/PI live-dead staining (FIG. 15) and JC-1 mitochondrial depolarization assays (FIG. 19). JC-1 assay indicated cell viability ˜80% for concentrations between 0.20-1.50 mM Au^3+.
On the technique in general: Tetrazolium dyes change colour on reduction, which living cells bring about.

Data set [5] has as its system PANC1 xenografts in nu/nu mice. The experiment in a line: Tumor volume after 10 Gy X-ray irradiation in xenografts. The class given is in vivo. As to conditions: 48 hours after treatment with 1.00 mM.
Data set [6] deals with PANC1 cells. Briefly: Fluorescence of in situ synthesis vs uptake of prefabricated GNCs. The class given is cell-based, human. As to conditions: 1.00 mM, 24 hr (FIG. 8B).
From the text: as §1, §2, §3

Another data set has as its system Mia-PaCa-2 cells. Described as above. It counts as cell-based, human. As to conditions: 1.00 mM, 24 hr (FIG. 8B).
From the text: as §1, §2, §3

The test system of the next data set is PANC1 pancreatic cancer. The experiment in a line: JC-1 assay of mitochondrial polarization after irradiation. The class given is cell-based, human. The note with it: 24 hr post-irradiation, 8 Gy. The method, then:
FIG. 22 reports on a mechanistic study of radiosensitization quantifying mitochondrial depolarization through JC-1 assay measured at 0, 1, and 24 hours, resulting from 24 hour, 0.20 mM Au^3+ treatments (lower three) compared against non-treated (upper three) combined with either 0 Gy or 8 Gy x-ray irradiation. Treatments are in full cell media to PANC1 pancreatic cancer.
The JC-1 assay measures the charge potential of the mitochondria of cells through the fluorometric ratio of the JC-1 dye (ThermoFisher Scientific, Waltham, Mass.). JC-1 is a cationic carbocyanine dye that accumulates in mitochondria. The dye exists as a monomer at low concentrations and yields green fluorescence, similar to fluorescein. […] These characteristics make JC-1 a sensitive marker for mitochondrial membrane potential. In other words, mitochondrial depolarization is indicated by a decrease in the red/green fluorescence intensity ratio. Mitochondrial depolarization is an indicator of reduced cell viability.
Further, we characterized the mechanisms of radiosensitization through (i) quantification of double stranded DNA breaks via y-H2AX Foci (FIG. 21), (ii) mitochondrial polarization via JC-1 assay (FIG. 22), (iii) NADP total (FIG. 23) and NADP:NADPH ratio (FIG. 24) via NADP(H) assay, and (iv) peroxidation production via TBARS assay (FIG. 25).

As for `[Au+3].[Cl-].[Cl-].[Cl-].[Cl-].[H+]` [Au^3+, chloroauric acid], in the data set with PANC1 cells [1] (1.00 mM, 10% FBS), the “earliest time at which fluorescence was observed after addition” value was found to be 30 min and the “time up to which fluorescence increased significantly” value is given as “up to 4 hours”. Besides, in the data set on PANC1 cells [1] (24 hr treatment, 10% FBS), the “Au^3+ concentrations at which fluorescence is reduced” value is given as “greater than 1.00 mM” and the “Au^3+ concentrations with significant formation of GNCs” value was in the range of 0.20 to 0.75 mM. In the data set with PANC1 cells [1] (media conditioning up to 72-hr, FBS 0-10% (v/v)), the “change of GNC synthesis with duration of media conditioning or FBS concentration” value is listed as “No significant changes”. The “GNC fluorescence / GNC formation” value in data set [2] was “ubiquitous”. Besides, the “intracellular formation of GNCs (confocal fluorescence)” value in the data set on NIH3T3 cells is “uniform formation of GNCs”. The “greater fluorescence due to GNC biomineralization in cancerous cells than in non-cancerous HPDE” value in data set [3] is on record as about 2 fold. In the data set with PANC1 cells [4] (0.0-0.20 mM), the “impact on viability (MTS)” value is recorded as “no impacts on viability”. In addition, the “cell viability (MTS)” value in the data set on PANC1 cells [4] (0.75 mM) is about 81%. The “radiosensitization effect by tumor volume measurements” value in [5] is recorded as “evidence of radiosensitization effect”. Besides, the “greater fluorescence due to in situ synthesis relative to cellular uptake of prefabricated GNCs” value in the data set on PANC1 cells [6] was 12.20 times. Further, the “greater fluorescence due to in situ synthesis relative to cellular uptake of prefabricated GNCs” value in the data set on Mia-PaCa-2 cells was 7.69 times. The “recovery of mitochondrial depolarization” value in the data set with PANC1 pancreatic cancer was “no recovery in the mitochondrial depolarization”.
